The values that follow come from patent US7498438B2, “Fused ring NK1 antagonists” (Schering Corporation, priority 2004, dated 2009).

NK1 receptor, sequence (P25103 whole entry, species assumed): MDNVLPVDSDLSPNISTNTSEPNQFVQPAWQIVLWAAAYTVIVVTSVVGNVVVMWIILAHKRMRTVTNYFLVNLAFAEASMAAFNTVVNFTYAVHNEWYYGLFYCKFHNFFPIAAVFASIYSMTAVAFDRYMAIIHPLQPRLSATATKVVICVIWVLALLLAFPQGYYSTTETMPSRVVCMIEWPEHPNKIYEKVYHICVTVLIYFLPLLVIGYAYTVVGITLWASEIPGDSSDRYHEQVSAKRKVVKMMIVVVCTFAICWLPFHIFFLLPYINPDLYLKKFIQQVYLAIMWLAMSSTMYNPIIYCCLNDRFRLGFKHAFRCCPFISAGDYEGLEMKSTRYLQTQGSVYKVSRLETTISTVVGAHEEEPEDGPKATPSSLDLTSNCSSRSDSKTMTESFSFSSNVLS

The target of the assay is NK1 receptor (Homo sapiens, UniProt P25103). Briefly: NK1 receptor binding: inhibition of Substance P binding, Ki by the Chang-Prusoff equation. The source says: The in vitro and in vivo NK1, NK2 and NK3 activities of the compounds of Formula 1 can be determined by various procedures known in the art, such as a test for their ability to inhibit the activity of the NK1 agonist Substance P. The percent inhibition of neurokinin agonist activity is the difference between the percent of maximum specific binding (“MSB”) and 100%. The percent of MSB is defined by the following equation, wherein “dpm” represents “disintegrations per minute”:
[formula] The concentration at which the compound produces 50% inhibition of binding is then used to determine an inhibition constant (“Ki”) using the Chang-Prusoff equation.
The activities (potencies) for the compounds of the invention are determined by measuring their Ki values. […] Even more preferred are compounds having average Ki values of from 0.01 nM to about 10 nM for the NK1 receptor. Especially preferred compounds have NK1 average Ki values of from 0.01 nM to about 3 nM. Even more especially preferred compounds have NK1 average Ki values of from 0.01 nM to about 0.3 nM.
Take `C[C@@H](OC[C@@]1(c2ccccc2)CCC2OC(=O)NC2N1)c1cc(C(F)(F)F)cc(C(F)(F)F)c1` (single isomer, unassigned) [Compound 4a]: the Ki (as a rule, a measure of affinity in units of concentration, obtained from inhibition or displacement) was 0.62 nM.
In the case of `C[C@@H](OC[C@@]1(c2ccccc2)CCC2OC(=O)NC2N1)c1cc(C(F)(F)F)cc(C(F)(F)F)c1` (single isomer, unassigned) [Compound 4b], affinity was put at a Ki of 0.32 nM.
`C[C@@H](OC[C@@]1(c2ccccc2)C[C@H]2NC(=O)NC2CN1)c1cc(C(F)(F)F)cc(C(F)(F)F)c1` (some centres unmarked) [Compound 1a] registered a Ki of 0.23 nM.
The figure for `C[C@@H](OC[C@@]1(c2ccccc2)CC[C@@H]2NC(=O)CC2N1)c1cc(C(F)(F)F)cc(C(F)(F)F)c1` (some centres unmarked) [Compound 5a] is 0.23 nM.
The value for `C[C@@H](OC[C@@]1(c2ccccc2)CC[C@@H]2NC(=O)OCCC2N1)c1cc(C(F)(F)F)cc(C(F)(F)F)c1` (some centres unmarked) [Compound 6a] was 0.14 nM.
As to `C[C@@H](OC[C@@]1(c2ccccc2)CC[C@@H]2NC(=O)CCC2N1)c1cc(C(F)(F)F)cc(C(F)(F)F)c1` (some centres unmarked) [Compound 7], the Ki came to 0.3 nM.
The molecule `C[C@@H](OC[C@@]1(c2ccccc2)CC[C@@H]2NC(=O)NCC2N1)c1cc(C(F)(F)F)cc(C(F)(F)F)c1` (some centres unmarked) [Compound 8] showed a Ki of 0.36 nM.
The value for `C[C@@H](OC[C@@]1(c2ccccc2)C[C@H]2OC(=O)NC2CN1)c1cc(C(F)(F)F)cc(C(F)(F)F)c1` (some centres unmarked) [Compound 9a] was 0.28 nM.
